The test concerns the target T1, aromatase (CYP19A1) (Homo sapiens, UniProt P11511).
T1 sequence (P11511 1-503): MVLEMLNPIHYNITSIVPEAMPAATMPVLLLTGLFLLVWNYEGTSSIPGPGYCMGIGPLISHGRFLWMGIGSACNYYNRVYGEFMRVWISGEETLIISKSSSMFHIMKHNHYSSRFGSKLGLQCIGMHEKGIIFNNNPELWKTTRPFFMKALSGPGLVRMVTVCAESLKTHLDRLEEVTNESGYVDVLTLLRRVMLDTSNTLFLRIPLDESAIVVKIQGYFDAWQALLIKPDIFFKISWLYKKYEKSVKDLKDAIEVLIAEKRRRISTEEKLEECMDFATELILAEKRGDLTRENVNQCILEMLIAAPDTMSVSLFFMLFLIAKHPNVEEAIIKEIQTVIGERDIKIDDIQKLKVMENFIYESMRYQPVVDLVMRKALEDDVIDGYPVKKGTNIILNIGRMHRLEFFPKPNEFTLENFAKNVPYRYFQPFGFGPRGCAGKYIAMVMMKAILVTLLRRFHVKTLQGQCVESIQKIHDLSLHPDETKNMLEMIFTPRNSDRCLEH
The test can be described thus: tritiated water-release aromatase assay in KGN cells after 24-h exposure. The test is classed as cell-based.

SMILES strings stand for the structures.

Take `CC(C)=CCc1c(O)cc(O)c2c1O[C@H](c1ccc(O)cc1)CC2=O` [8-PN, 8-prenylnaringenin]: the concentration for half-maximal inhibition (IC50) (commonly the concentration that gives 50% inhibition) came out at 8 nM.

(Values after publication PMC5598505 (Toxicology Reports, 2014).)
